From patent US8835124B2, “Method for treating cancer with agents that bind phosphorylated CDC27” (The Nemours Foundation, priority 2011, dated 2014)

System: DAOY cells
Experiment: LDH release cytotoxicity assay
Assay type: cell-based, human
Details: DAOY cells treated for 16 hours
Description: Lactate dehydrogenase (LDH) levels as a measure of cell death were determined using the Non-radioactive Cytotoxicity kit (Promega, Madison, Wis.) according to manufacturer's instructions. […] Cell debris was removed by centrifugation. Viable cell LDH was collected from cells lysed by freezing for 15 minutes at −70° C. followed by thawing at 37° C. The medium was collected and cleared from cell debris by centrifugation. The relative release of LDH was determined as the ratio of released LDH versus total LDH from viable cells.
Data represent mean±SEM of three independent experiments.

**Q.** `COc1cc(C=CC(C)=O)ccc1O` [half-curcumin, 4-(4-hydroxy-3-methoxyphenyl)-3-buten-2-one] was tested. Which “cell death (LDH release)” value did it give?
**A.** failed to induce cell death
